Assay results: publication PMC5201331, “Subchronic Toxicities of HZ1006, a Hydroxamate-Based Histone Deacetylase Inhibitor, in Beagle Dogs and Sprague-Dawley Rats” (International Journal of Environmental Research and Public …, 2016)

Experiments:
Beagle dogs = experiment: Subchronic toxicity test in Beagle dogs: organ weights; type: in vivo
Procedure: HZ1006 was administered orally to dogs (four/sex/group) at doses of 80, 40, 20, 5 and 0 (control) mg/kg/day, and the dosage volume was 2 mL/kg. The dogs received test doses with the exact amounts on a weekly basis based on current body weights. […] The other dogs in the above groups were dissected on the planned days. For the other groups, half of the dogs were anatomized on d28 and the remaining half on d42.
(§1) After euthanasia, the following organs or tissues were isolated from the dogs and rats: skin, abnormal lesions, spleen, mammary glands, jejunum, pancreas, ileum, duodenum, stomach, colon, cecum, lymph nodes, mesenteric salivary glands, liver, submandibular lymph nodes, thymus, sternum, lungs, heart, esophagus, trachea, tongue, thyroid with parathyroid gland, sciatic nerve, aorta, femurs, skeletal muscle, pituitary gland, brain, kidneys, eyes, urinary bladder, adrenal glands, uterus, ovaries, testes, epididymis and prostate. The weights of the animal organs, such as the liver, spleen, heart, thymus, brain, lungs, adrenal glands, kidneys, uterus, ovaries, epididymis and testes, were tested using an electronic balance. The organs or tissues were fixed using 10% neutral buffered formalin and were then gradient dehydrated, embedded, sectioned, and stained with routine hematoxylin-eosin prior to histopathological observations.

SD rats = experiment: Subchronic toxicity test in SD rats: organ weights; type: in vivo, Sprague-Dawley (SD) rats; settings: for Adrenal gland absolute weight / Brain relative weight: female rats; for Kidney relative weight / Testis absolute weight: male rats
Procedure: as §1, with “The rats that were judged suitable for the subchronic toxicity study were randomly divided into four groups (10 rats/sex/group). The rats received the test sample by gavage once daily for 28 days. HZ1006 was administered to the rats at doses of 120, 60, 20 and 0 (control) mg/kg, and the dosage volume was 5 mL/kg. Half of the 80 rats (half male and half female) were selected randomly according to body weight and dissected at d28. The remaining rats were dissected at […]. After” for “After”

[1] = dog ♂5 (80 mg/kg/day oral), d28
[2] = dog ♂23 (40 mg/kg/day oral), d28
[3] = dogs, 5 mg/kg/day oral, d42 (recovery)
[4] = dogs, 20 mg/kg/day oral, d42 (recovery)
[5] = dogs, 40 mg/kg/day oral, d42 (recovery)
[6] = dogs, 80 mg/kg/day oral, d42 (recovery)
[7] = 20 mg/kg oral daily, d42 (recovery)
[8] = 60 mg/kg oral daily, d42 (recovery)
[9] = 120 mg/kg oral daily, d42 (recovery)

CCCCCCCNc1cc(/C=C/C(=O)NO)ccc1OCCN(CC)CC [HZ1006]
Lung absolute weight (Beagle dogs; [1]): 135.9 g
Lung relative weight (Beagle dogs; [1]): 13.39
Lung absolute weight (Beagle dogs; [2]): 109.8 g
Lung relative weight (Beagle dogs; [2]): 12.34
Lung absolute weight (Beagle dogs; dogs, 5 mg/kg/day oral, d28): 72.7 ± 8.2 g
Lung relative weight (Beagle dogs; dogs, 5 mg/kg/day oral, d28): 6.90 ± 0.90
Testis absolute weight (Beagle dogs; dogs, 5 mg/kg/day oral, d28): 13.550 ± 0.494 g
Testis relative weight (Beagle dogs; dogs, 5 mg/kg/day oral, d28): 1.23 ± 0.03
Testis absolute weight (Beagle dogs; [3]): 14.050 ± 0.212 g
Testis relative weight (Beagle dogs; [3]): 1.45 ± 0.04
Lung absolute weight (Beagle dogs; dogs, 20 mg/kg/day oral, d28): 71.4 ± 12.6 g
Lung relative weight (Beagle dogs; dogs, 20 mg/kg/day oral, d28): 6.96 ± 1.02
Testis absolute weight (Beagle dogs; dogs, 20 mg/kg/day oral, d28): 13.953 ± 0.081 g
Testis relative weight (Beagle dogs; dogs, 20 mg/kg/day oral, d28): 1.31 ± 0.26
Lung absolute weight (Beagle dogs; [4]): 74.0 ± 8.8 g
Lung relative weight (Beagle dogs; [4]): 7.37 ± 0.67
Testis absolute weight (Beagle dogs; [4]): 12.179 ± 0.518 g
Testis relative weight (Beagle dogs; [4]): 1.21 ± 0.01
Lung absolute weight (Beagle dogs; dogs, 40 mg/kg/day oral, d28): 92.4 ± 15.4 g
Lung relative weight (Beagle dogs; dogs, 40 mg/kg/day oral, d28): 9.87 ± 2.14
Testis absolute weight (Beagle dogs; dogs, 40 mg/kg/day oral, d28): 6.631 ± 2.855 g
Testis relative weight (Beagle dogs; dogs, 40 mg/kg/day oral, d28): 0.69 ± 0.24
Lung absolute weight (Beagle dogs; [5]): 70.4 ± 5.0 g
Lung relative weight (Beagle dogs; [5]): 7.10 ± 1.13
Testis absolute weight (Beagle dogs; [5]): 9.400 ± 0.063 g
Testis relative weight (Beagle dogs; [5]): 0.78 ± 0.21
Lung absolute weight (Beagle dogs; dogs, 80 mg/kg/day oral, d28): 95.8 ± 35.3 g
Lung relative weight (Beagle dogs; dogs, 80 mg/kg/day oral, d28): 9.87 ± 3.27
Testis absolute weight (Beagle dogs; dogs, 80 mg/kg/day oral, d28): 5.660 ± 1.608 g
Testis relative weight (Beagle dogs; dogs, 80 mg/kg/day oral, d28): 0.61 ± 0.23
Lung absolute weight (Beagle dogs; [6]): 82.9 ± 6.8 g
Lung relative weight (Beagle dogs; [6]): 8.49 ± 0.95
Testis absolute weight (Beagle dogs; [6]): 6.017 ± 2.937 g
Testis relative weight (Beagle dogs; [6]): 0.63 ± 0.31
Adrenal gland absolute weight (SD rats; 20 mg/kg oral daily, d28): 0.081 ± 0.005 g
Brain relative weight (SD rats; 20 mg/kg oral daily, d28): 0.728 ± 0.047 g/100 g
Adrenal gland absolute weight (SD rats; [7]): 0.072 ± 0.008 g
Brain relative weight (SD rats; [7]): 0.768 ± 0.020 g/100 g
Adrenal gland absolute weight (SD rats; 60 mg/kg oral daily, d28): 0.068 ± 0.003 g
Brain relative weight (SD rats; 60 mg/kg oral daily, d28): 0.799 ± 0.062 g/100 g
Adrenal gland absolute weight (SD rats; [8]): 0.071 ± 0.012 g
Brain relative weight (SD rats; [8]): 0.768 ± 0.068 g/100 g
Adrenal gland absolute weight (SD rats; 120 mg/kg oral daily, d28): 0.066 ± 0.008 g
Brain relative weight (SD rats; 120 mg/kg oral daily, d28): 0.834 ± 0.042 g/100 g
Adrenal gland absolute weight (SD rats; [9]): 0.069 ± 0.011 g
Brain relative weight (SD rats; [9]): 0.745 ± 0.089 g/100 g
Kidney relative weight (SD rats; 20 mg/kg oral daily, d28): 0.707 ± 0.024 g/100 g
Testis absolute weight (SD rats; 20 mg/kg oral daily, d28): 2.707 ± 0.090 g
Kidney relative weight (SD rats; [7]): 0.693 ± 0.033 g/100 g
Testis absolute weight (SD rats; [7]): 2.798 ± 0.112 g
Kidney relative weight (SD rats; 60 mg/kg oral daily, d28): 0.705 ± 0.039 g/100 g
Testis absolute weight (SD rats; 60 mg/kg oral daily, d28): 2.624 ± 0.170 g
Kidney relative weight (SD rats; [8]): 0.687 ± 0.020 g/100 g
Testis absolute weight (SD rats; [8]): 2.787 ± 0.097 g
Kidney relative weight (SD rats; 120 mg/kg oral daily, d28): 0.673 ± 0.023 g/100 g
Testis absolute weight (SD rats; 120 mg/kg oral daily, d28): 2.666 ± 0.115 g
Kidney relative weight (SD rats; [9]): 0.624 ± 0.053 g/100 g
Testis absolute weight (SD rats; [9]): 2.723 ± 0.161 g
